In patent publication US20090018156A1, “Pyrrolo [2,3,B] Pyridine Derivatives Useful As RAF Kinase Inhibitors” (priority 2006, published 2009):
Read-outs that look alike come from different tables or passages of the source.

System: B-Raf mediated phosphorylation of MEK1
Assay: Cellular assay of B-Raf mediated phosphorylation of MEK1 in co-transfected 3T3 cells
Type: cell-based
Details: Mus musculus, NIH3T3, 2 h, two hours exposure, anti-phospho-MEK1/2 immunoassay
Description: B-Raf mediated phosphorylation of MEK1 was measured in a cellular assay. Expression constructs for B-Raf and FLAG-tagged MEK1 (a B-raf substrate) were co-transfected in 3T3 cells and gene expression was induced using the GeneSwitch™ system for inducible mammalian expression (Invitrogen). Four hours following the induction of expression of B-Raf and MEK1, cells were exposed to the test compounds for two hours. The cells were then lysed, and then an immunoassay was performed using anti-phospho-MEK1/2 (Cell Signaling Technlogoies) to detect the percent inhibition of MEK1 phosphorylation.

[1] = 3T3 cells co-transfected with B-Raf and FLAG-tagged MEK1, read-out: Potency (IC50, inhibition of MEK1 phosphorylation)
[2] = read-out: Potency (IC50, inhibition of MEK1 phosphorylation), 3T3 cells co-transfected with B-Raf and FLAG-tagged MEK1

| SMILES | IC50 [1] | IC50 [2] |
| --- | --- | --- |
| CCn1cc(-c2ccnc3[nH]ccc23)c(-c2cccc(NC(=O)Nc3c(F)cccc3F)c2)n1 [Example 6, N-(2,6-Difluorophenyl)-N-{3-[1-ethyl-4-(1H-pyrrolo[2,3-b]pyridin-4-yl)-1H-pyrazol-3-yl]phenyl}urea] | < 6 µM | – |
| CCn1cc(-c2ccnc3[nH]cc(Br)c23)c(-c2cccc(NC(=O)Nc3ccccc3)c2)n1 [Example 14, N-{3-[4-(3-Bromo-1H-pyrrolo[2,3-b]pyridin-4-yl)-1-ethyl-1H-pyrazol-3-yl]phenyl}-N-phenylurea] | < 6 µM | – |
| CCn1cc(-c2ccnc3[nH]ccc23)c(-c2cccc(NC(=O)NCc3ccccc3)c2)n1 [Example 9, N-{3-[1-Ethyl-4-(1H-pyrrolo[2,3-b]pyridin-4-yl)-1H-pyrazol-3-yl]phenyl}-N-(phenylmethyl)urea] | – | < 6 µM |
| CCn1cc(-c2ccnc3[nH]ccc23)c(-c2cccc(NC(=O)NC3CCCCC3)c2)n1 [Example 8, N-Cyclohexyl-N-{3-[1-ethyl-4-(1H-pyrrolo[2,3-b]pyridin-4-yl)-1H-pyrazol-3-yl]phenyl}urea] | – | < 6 µM |
| CCn1cc(-c2ccnc3[nH]cc(Cl)c23)c(-c2cccc(NC(=O)Nc3ccccc3)c2)n1 [Example 13, N-{3-[4-(3-Chloro-1H-pyrrolo[2,3-b]pyridin-4-yl)-1-ethyl-1H-pyrazol-3-yl]phenyl}-N-phenylurea] | > 6 µM | – |
